# Measurements taken from patent US9738612B2, “Methylacryloyl benzimidazolone derivative and anti-tumour use thereof” (SHANGHAI NATURE STANDARD R&D AND BIOTECH CO., LTD, priority 2014, dated 2017).
# Key:
# Assay in all cases: Tumor-associated kinase inhibition test
# Type in all cases: biochemical
# [1] = target: T1, ALK(h) (Homo sapiens, UniProt Q9UM73); conditions: read-out: Inhibitory rate (%)
# T1 construct: purchased Eurofins Pharma Discovery Services UK Limited (contract assay service)
# Description: (§1) Eurofins Pharma Discovery Services UK Limited completed and reported this experiment.
# [2] = target: T2, ASK1(h) (Homo sapiens, UniProt Q99683); conditions: read-out: Inhibitory rate (%)
# T2 construct: purchased Eurofins Pharma Discovery Services UK Limited (contract assay service)
# Description: as §1
# [3] = target: T3, Abl(h) (Homo sapiens, UniProt P00519); conditions: read-out: Inhibitory rate (%)
# T3 construct: purchased Eurofins Pharma Discovery Services UK Limited (contract assay service)
# Description: as §1
# [4] = target: T4, Arg(h) (Homo sapiens, UniProt P42684); conditions: read-out: Inhibitory rate (%)
# T4 construct: purchased Eurofins Pharma Discovery Services UK Limited (contract assay service)
# T4 sequence (P42684 whole entry): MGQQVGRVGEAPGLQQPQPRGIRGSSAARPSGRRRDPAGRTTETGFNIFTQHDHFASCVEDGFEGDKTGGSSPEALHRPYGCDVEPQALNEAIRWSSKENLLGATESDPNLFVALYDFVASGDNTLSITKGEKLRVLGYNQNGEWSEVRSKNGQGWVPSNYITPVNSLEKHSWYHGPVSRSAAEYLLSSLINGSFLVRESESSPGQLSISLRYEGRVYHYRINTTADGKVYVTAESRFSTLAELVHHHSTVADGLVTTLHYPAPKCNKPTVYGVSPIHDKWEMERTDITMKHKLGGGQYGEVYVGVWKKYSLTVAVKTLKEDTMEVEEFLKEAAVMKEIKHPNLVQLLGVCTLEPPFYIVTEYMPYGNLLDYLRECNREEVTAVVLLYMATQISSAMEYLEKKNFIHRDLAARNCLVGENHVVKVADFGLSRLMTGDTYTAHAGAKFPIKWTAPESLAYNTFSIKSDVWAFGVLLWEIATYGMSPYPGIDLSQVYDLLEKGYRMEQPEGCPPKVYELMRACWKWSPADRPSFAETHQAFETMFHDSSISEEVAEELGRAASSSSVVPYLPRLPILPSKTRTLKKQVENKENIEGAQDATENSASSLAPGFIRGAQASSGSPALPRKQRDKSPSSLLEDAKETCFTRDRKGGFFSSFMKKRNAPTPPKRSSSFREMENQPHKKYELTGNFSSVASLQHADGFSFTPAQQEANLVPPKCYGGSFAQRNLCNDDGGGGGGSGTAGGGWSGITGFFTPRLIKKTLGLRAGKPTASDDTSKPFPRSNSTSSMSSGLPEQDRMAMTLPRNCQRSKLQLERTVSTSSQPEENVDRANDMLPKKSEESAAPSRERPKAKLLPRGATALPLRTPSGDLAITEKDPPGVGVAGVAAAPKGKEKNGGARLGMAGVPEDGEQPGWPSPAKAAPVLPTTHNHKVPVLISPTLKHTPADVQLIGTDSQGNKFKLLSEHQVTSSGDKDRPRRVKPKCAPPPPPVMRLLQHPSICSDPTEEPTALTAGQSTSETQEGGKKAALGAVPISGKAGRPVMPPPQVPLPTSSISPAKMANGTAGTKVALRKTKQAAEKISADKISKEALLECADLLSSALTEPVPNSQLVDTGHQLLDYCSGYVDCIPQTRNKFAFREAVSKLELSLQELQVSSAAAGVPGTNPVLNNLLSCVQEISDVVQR
# Description: as §1
# [5] = target: T5, Axl(h) (Homo sapiens, UniProt P30530); conditions: read-out: Inhibitory rate (%)
# T5 construct: purchased Eurofins Pharma Discovery Services UK Limited (contract assay service)
# Description: as §1
# [6] = target: T6, CDK1/cyclinB(h) (Homo sapiens, UniProt P06493); conditions: read-out: Inhibitory rate (%)
# T6 construct: purchased Eurofins Pharma Discovery Services UK Limited (contract assay service)
# Description: as §1
# [7] = target: T7, CDK2/cyclinE(h) (Homo sapiens, UniProt P24941); conditions: read-out: Inhibitory rate (%)
# T7 construct: purchased Eurofins Pharma Discovery Services UK Limited (contract assay service)
# Description: as §1
# [8] = target: T8, CDK6/cyclinD3(h) (Homo sapiens, UniProt Q00534); conditions: read-out: Inhibitory rate (%)
# T8 construct: purchased Eurofins Pharma Discovery Services UK Limited (contract assay service)
# Description: as §1
# [9] = target: T9, CDK7/cyclinH/MAT1(h) (Homo sapiens, UniProt P50613); conditions: read-out: Inhibitory rate (%)
# T9 construct: purchased Eurofins Pharma Discovery Services UK Limited (contract assay service)
# Description: as §1
# [10] = target: T10, CK1δ(h) (Homo sapiens, UniProt P48730); conditions: read-out: Inhibitory rate (%)
# T10 construct: purchased Eurofins Pharma Discovery Services UK Limited (contract testing)
# Description: as §1
# [11] = target: T11, EphB2(h) (Homo sapiens, UniProt P29323); conditions: read-out: Inhibitory rate (%)
# T11 construct: purchased Eurofins Pharma Discovery Services UK Limited (contract testing)
# Description: as §1
# [12] = target: T12, Fms(h) (Homo sapiens, UniProt P07333); conditions: read-out: Inhibitory rate (%)
# T12 construct: purchased Eurofins Pharma Discovery Services UK Limited (contract testing)
# Description: as §1
# [13] = target: T13, IKKα(h) (Homo sapiens, UniProt O15111); conditions: read-out: Inhibitory rate (%)
# T13 construct: purchased Eurofins Pharma Discovery Services UK Limited (contract testing)
# Description: as §1
# [14] = target: T14, JNK1α1(h) (Homo sapiens, UniProt P45983); conditions: read-out: Inhibitory rate (%)
# T14 construct: purchased Eurofins Pharma Discovery Services UK Limited (contract testing)
# Description: as §1
# [15] = target: T15, KDR(h) (Homo sapiens, UniProt P35968); conditions: read-out: Inhibitory rate (%)
# T15 construct: purchased Eurofins Pharma Discovery Services UK Limited
# Description: as §1
# [16] = target: T16, LKB1(h) (Homo sapiens, UniProt Q15831); conditions: read-out: Inhibitory rate (%)
# T16 construct: purchased Eurofins Pharma Discovery Services UK Limited
# Description: as §1
# [17] = target: T17, MAPK1(h) (Homo sapiens, UniProt P27361); conditions: read-out: Inhibitory rate (%)
# T17 construct: purchased Eurofins Pharma Discovery Services UK Limited
# Description: as §1
# [18] = target: T18, Met(h) (Homo sapiens, UniProt P08581); conditions: read-out: Inhibitory rate (%)
# T18 construct: purchased Eurofins Pharma Discovery Services UK Limited
# Description: as §1
# [19] = target: T19, PDGFRα(h) (Homo sapiens, UniProt P16234); conditions: read-out: Inhibitory rate (%)
# T19 construct: purchased Eurofins Pharma Discovery Services UK Limited
# T19 sequence (P16234 24-1089): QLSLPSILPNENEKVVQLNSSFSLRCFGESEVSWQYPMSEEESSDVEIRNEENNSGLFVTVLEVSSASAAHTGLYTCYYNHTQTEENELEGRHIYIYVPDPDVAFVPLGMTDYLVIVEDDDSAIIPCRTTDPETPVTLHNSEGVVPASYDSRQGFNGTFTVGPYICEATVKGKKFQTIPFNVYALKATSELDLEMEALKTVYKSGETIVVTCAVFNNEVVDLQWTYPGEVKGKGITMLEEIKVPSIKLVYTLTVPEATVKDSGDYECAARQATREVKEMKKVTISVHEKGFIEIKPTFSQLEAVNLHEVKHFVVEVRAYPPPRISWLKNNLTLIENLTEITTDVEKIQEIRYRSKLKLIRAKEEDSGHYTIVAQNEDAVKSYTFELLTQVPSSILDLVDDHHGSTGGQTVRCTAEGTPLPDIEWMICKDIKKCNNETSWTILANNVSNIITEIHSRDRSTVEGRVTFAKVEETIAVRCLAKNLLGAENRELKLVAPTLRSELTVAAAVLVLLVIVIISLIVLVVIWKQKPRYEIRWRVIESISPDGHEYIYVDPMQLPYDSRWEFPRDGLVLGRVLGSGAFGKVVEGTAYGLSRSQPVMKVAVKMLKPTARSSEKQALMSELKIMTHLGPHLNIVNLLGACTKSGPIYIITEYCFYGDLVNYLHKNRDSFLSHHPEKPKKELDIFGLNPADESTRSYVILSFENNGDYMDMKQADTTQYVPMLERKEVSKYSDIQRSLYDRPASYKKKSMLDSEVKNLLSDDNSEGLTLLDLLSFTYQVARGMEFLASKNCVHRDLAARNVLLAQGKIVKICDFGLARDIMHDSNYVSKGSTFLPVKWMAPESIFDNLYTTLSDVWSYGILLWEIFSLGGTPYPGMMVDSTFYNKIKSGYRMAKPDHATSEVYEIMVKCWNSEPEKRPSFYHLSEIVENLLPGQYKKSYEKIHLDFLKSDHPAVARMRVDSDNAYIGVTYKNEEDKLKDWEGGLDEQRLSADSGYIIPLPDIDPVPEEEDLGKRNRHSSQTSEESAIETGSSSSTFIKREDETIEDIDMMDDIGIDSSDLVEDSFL
# Description: as §1
# [20] = target: T20, PDK1(h) (Homo sapiens, UniProt O15530); conditions: read-out: Inhibitory rate (%)
# T20 construct: purchased Eurofins Pharma Discovery Services UK Limited
# Description: as §1
# [21] = target: T21, PEK(h) (Homo sapiens, UniProt Q9NZJ5); conditions: read-out: Inhibitory rate (%)
# T21 construct: purchased Eurofins Pharma Discovery Services UK Limited
# Description: as §1
# [22] = target: T22, PI3Kinase(p110α(E542K)/p85α)(h) (Homo sapiens, UniProt P42336, E542K); conditions: read-out: Inhibitory rate (%)
# T22 construct: purchased Eurofins Pharma Discovery Services UK Limited (contract assay)
# Description: as §1
# [23] = target: T23, PI3Kinase(p110α(E545K)/p85α)(h) (Homo sapiens, UniProt P42336, E545K); conditions: read-out: Inhibitory rate (%)
# T23 construct: purchased Eurofins Pharma Discovery Services UK Limited (contract assay)
# Description: as §1
# [24] = target: T24, PI3Kinase(p110α(H1047R)/p85α)(h) (Homo sapiens, UniProt P42336, H1047R); conditions: read-out: Inhibitory rate (%)
# T24 construct: purchased Eurofins Pharma Discovery Services UK Limited (contract assay)
# Description: as §1
# [25] = target: T25, PI3Kinase(p110α/p65α)(h) (Homo sapiens, UniProt P42336); conditions: read-out: Inhibitory rate (%)
# T25 construct: purchased Eurofins Pharma Discovery Services UK Limited (contract assay)
# Description: as §1
# [26] = target: T26, PI3Kinase(p110β/p85α)(h) (Homo sapiens, UniProt P42338); conditions: read-out: Inhibitory rate (%)
# T26 construct: purchased Eurofins Pharma Discovery Services UK Limited (contract assay)
# Description: as §1
# [27] = target: T27, PKBα(h) (Homo sapiens, UniProt P31749); conditions: read-out: Inhibitory rate (%)
# T27 construct: purchased Eurofins Pharma Discovery Services UK Limited
# T27 sequence (P31749 whole entry): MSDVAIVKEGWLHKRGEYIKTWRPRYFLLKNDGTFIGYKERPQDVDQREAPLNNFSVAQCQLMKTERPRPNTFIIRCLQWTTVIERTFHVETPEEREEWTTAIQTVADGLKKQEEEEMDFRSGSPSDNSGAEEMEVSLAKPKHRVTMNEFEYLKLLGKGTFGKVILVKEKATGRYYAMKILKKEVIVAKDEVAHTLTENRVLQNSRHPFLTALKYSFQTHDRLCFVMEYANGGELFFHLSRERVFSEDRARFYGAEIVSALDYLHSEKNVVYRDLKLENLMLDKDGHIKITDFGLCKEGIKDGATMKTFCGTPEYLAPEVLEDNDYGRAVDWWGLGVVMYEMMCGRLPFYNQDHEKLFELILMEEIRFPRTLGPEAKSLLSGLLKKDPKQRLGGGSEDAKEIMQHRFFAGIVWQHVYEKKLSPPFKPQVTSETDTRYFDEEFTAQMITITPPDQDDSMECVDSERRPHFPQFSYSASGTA
# Description: as §1
# [28] = target: T28, PKBγ(h) (Homo sapiens, UniProt Q9Y243); conditions: read-out: Inhibitory rate (%)
# T28 construct: purchased Eurofins Pharma Discovery Services UK Limited
# Description: as §1
# [29] = target: T29, PKCβII(h) (Homo sapiens, UniProt P05771); conditions: read-out: Inhibitory rate (%)
# T29 construct: purchased Eurofins Pharma Discovery Services UK Limited
# Description: as §1
# [30] = target: T30, PKCγ(h) (Homo sapiens, UniProt P05129); conditions: read-out: Inhibitory rate (%)
# T30 construct: purchased Eurofins Pharma Discovery Services UK Limited
# Description: as §1
# [31] = target: T31, PKCζ(h) (Homo sapiens, UniProt Q05513); conditions: read-out: Inhibitory rate (%)
# T31 construct: purchased Eurofins Pharma Discovery Services UK Limited
# T31 sequence (Q05513 whole entry): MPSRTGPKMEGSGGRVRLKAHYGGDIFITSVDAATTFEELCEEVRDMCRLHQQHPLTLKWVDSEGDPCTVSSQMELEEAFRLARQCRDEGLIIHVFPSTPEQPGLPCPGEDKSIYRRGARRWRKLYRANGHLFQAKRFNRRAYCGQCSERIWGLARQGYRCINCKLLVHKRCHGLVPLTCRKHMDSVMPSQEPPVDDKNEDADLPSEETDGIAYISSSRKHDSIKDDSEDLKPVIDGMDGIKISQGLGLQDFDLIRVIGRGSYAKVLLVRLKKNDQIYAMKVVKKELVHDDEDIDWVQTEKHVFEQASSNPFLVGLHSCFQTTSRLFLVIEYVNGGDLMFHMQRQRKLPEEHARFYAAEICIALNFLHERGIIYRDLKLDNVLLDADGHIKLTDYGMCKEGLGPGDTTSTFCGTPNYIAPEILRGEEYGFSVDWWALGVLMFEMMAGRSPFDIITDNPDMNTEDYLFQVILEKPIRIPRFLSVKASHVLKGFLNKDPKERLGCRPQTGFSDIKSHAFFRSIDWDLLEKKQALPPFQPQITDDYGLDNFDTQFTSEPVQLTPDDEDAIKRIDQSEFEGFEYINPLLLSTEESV
# Description: as §1
# [32] = target: T32, PKD2(h) (Homo sapiens, UniProt Q9BZL6); conditions: read-out: Inhibitory rate (%)
# T32 construct: purchased Eurofins Pharma Discovery Services UK Limited
# Description: as §1
# [33] = target: T33, Ret(h) (Homo sapiens, UniProt P07949); conditions: read-out: Inhibitory rate (%)
# T33 construct: purchased Eurofins Pharma Discovery Services UK Limited
# Description: as §1
# [34] = target: T34, Rsk3(h) (Homo sapiens, UniProt Q15349); conditions: read-out: Inhibitory rate (%)
# T34 construct: purchased Eurofins Pharma Discovery Services UK Limited
# Description: as §1
# [35] = target: T35, Tie2(h) (Homo sapiens, UniProt Q02763); conditions: read-out: Inhibitory rate (%)
# T35 construct: purchased Eurofins Pharma Discovery Services UK Limited
# Description: as §1
# [36] = target: T36, c-RAF(h) (Homo sapiens, UniProt P04049); conditions: read-out: Inhibitory rate (%)
# T36 construct: purchased Eurofins Pharma Discovery Services UK Limited (contract testing)
# Description: as §1
# [37] = target: T37, cKit(h) (Homo sapiens, UniProt P10721); conditions: read-out: Inhibitory rate (%)
# T37 construct: purchased Eurofins Pharma Discovery Services UK Limited (contract testing)
# Description: as §1
# [38] = target: T38, mTOR(h) (Homo sapiens, UniProt P42345)
# T38 construct: purchased Eurofins Pharma Discovery Services UK Limited (contract assay)
# Description: as §1
# T1 sequence (Q9UM73 19-1620): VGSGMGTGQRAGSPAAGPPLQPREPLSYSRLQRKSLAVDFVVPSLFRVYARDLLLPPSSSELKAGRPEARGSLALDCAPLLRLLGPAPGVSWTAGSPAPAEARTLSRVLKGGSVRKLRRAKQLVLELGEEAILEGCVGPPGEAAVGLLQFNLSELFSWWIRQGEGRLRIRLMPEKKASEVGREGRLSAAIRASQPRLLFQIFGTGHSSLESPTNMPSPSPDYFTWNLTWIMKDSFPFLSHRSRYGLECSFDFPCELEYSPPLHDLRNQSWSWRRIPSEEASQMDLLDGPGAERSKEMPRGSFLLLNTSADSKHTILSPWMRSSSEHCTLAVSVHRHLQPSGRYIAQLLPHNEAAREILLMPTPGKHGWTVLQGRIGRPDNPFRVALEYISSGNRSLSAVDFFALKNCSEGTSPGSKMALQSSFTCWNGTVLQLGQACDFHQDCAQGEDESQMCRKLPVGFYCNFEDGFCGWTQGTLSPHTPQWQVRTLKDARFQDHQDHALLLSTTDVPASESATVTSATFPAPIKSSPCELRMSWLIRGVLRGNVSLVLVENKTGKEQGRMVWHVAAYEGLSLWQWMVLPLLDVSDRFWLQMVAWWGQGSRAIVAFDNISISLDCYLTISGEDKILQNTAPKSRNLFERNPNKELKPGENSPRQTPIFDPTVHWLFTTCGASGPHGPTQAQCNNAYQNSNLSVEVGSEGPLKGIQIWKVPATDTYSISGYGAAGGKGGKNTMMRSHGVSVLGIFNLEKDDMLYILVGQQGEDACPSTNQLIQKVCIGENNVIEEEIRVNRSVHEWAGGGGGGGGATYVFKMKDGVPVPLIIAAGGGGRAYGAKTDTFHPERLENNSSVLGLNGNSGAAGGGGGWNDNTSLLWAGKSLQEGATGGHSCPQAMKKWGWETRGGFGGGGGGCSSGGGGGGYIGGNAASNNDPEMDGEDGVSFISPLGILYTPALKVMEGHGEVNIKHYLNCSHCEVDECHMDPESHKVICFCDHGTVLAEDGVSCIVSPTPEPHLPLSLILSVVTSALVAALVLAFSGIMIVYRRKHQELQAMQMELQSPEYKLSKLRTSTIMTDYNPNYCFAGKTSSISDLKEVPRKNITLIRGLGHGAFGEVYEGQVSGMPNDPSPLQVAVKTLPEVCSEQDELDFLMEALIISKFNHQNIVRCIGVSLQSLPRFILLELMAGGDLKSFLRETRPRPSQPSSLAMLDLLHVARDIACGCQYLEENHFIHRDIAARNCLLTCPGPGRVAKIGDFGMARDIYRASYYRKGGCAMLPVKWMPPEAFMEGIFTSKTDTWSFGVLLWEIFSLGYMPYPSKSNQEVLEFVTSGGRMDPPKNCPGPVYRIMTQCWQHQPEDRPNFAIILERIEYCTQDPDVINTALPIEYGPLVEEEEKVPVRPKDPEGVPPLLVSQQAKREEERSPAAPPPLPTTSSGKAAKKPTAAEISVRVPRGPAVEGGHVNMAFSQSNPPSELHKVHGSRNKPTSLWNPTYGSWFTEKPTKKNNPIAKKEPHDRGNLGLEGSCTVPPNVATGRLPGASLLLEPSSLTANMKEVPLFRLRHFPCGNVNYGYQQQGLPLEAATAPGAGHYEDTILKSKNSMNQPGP
smiles,measurement,setting,value
C=C(C)n1c(=O)n(C(C)=O)c2ncc(Br)cc21 [FD162],inhibition at 10 µM,[1],16%
same,inhibition at 10 µM,[2],4%
same,inhibition at 10 µM,[3],2%
same,inhibition at 10 µM,[4],-7%
same,inhibition at 10 µM,[5],24%
same,inhibition at 10 µM,[6],1%
same,inhibition at 10 µM,[7],0%
same,inhibition at 10 µM,[8],-1%
same,inhibition at 10 µM,[9],-8%
same,inhibition at 10 µM,[10],7%
same,inhibition at 10 µM,[11],7%
same,inhibition at 10 µM,[12],-9%
same,inhibition at 10 µM,[13],5%
same,inhibition at 10 µM,[14],4%
same,inhibition at 10 µM,[15],-1%
same,inhibition at 10 µM,[16],8%
same,inhibition at 10 µM,[17],8%
same,inhibition at 10 µM,[18],-9%
same,inhibition at 10 µM,[19],-9%
same,inhibition at 10 µM,[20],-1%
same,inhibition at 10 µM,[21],0%
same,inhibition at 10 µM,[22],4%
same,inhibition at 10 µM,[23],4%
same,inhibition at 10 µM,[24],3%
same,inhibition at 10 µM,[25],3%
same,inhibition at 10 µM,[26],-3%
same,inhibition at 10 µM,[27],4%
same,inhibition at 10 µM,[28],8%
same,inhibition at 10 µM,[29],6%
same,inhibition at 10 µM,[30],11%
same,inhibition at 10 µM,[31],5%
same,inhibition at 10 µM,[32],11%
same,inhibition at 10 µM,[33],7%
same,inhibition at 10 µM,[34],2%
same,inhibition at 10 µM,[35],14%
same,inhibition at 10 µM,[36],-3%
same,inhibition at 10 µM,[37],7%
same,Selectivity among 114 tumor-associated kinases,"[38]; 10 μM, in words",selectively inhibit the activity of mTOR
same,inhibition at 10 µM,"[38]; mTOR(h), read-out: Inhibitory rate (%)",95%
